Read-outs that look alike come from different tables or passages of the source.
Columns and labels:
KM mice [1] = conditions: both, mouse, in vivo
Description: (§4) KM mice (half male and half female) were randomly divided into several groups (with 2-5 mice in each group), which were respectively the 2000 mg/kg groups for each compound, and the solvent group. 0.2 ml/10 g were administered intragastrically. The death of the animals in 3 days were observed. (In the case 3 or more animals survived in 3 days without notable abnormity in their life states, the observation was continued until the assay was completed in 7 days. In the case 3 or more animals died in 3 days, the median lethal dose method was used to determine the LD50).
(§5) 0.2 ml/10 g were administered intragastrically, and the death of the animals in 1-3 days were observed.

5-HT2A receptor = 5-HT2A receptor (Rattus norvegicus, UniProt P14842); assay: 5HT2A receptor binding assay ([3H]-Ketanserin, rat brain striatum membrane); conditions: for inhibition at 10 µM: read-out: 5HT2A inhibition %
in vivo = conditions: both, mouse, po
Description: as §4, §5

dopamine D2 receptor = dopamine D2 receptor (Rattus norvegicus, UniProt P61169); assay: D2 receptor binding assay (3H-Spiperone, rat brain striatum membrane); conditions: for inhibition at 10 µM: read-out: D2 inhibition %
dopamine D2 receptor, sequence (P61169 whole entry): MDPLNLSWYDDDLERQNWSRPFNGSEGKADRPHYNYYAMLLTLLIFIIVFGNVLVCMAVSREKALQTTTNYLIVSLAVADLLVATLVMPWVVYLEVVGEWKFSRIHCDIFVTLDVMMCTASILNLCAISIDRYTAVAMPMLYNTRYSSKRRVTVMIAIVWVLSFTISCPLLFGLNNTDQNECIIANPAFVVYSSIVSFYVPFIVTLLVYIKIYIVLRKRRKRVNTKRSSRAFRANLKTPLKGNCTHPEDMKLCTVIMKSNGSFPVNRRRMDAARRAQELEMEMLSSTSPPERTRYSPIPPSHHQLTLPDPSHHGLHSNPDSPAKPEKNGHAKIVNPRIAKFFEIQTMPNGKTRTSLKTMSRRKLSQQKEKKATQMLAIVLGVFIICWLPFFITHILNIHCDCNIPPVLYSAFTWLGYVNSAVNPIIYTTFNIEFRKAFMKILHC
Description: Rats were sacrificed by cervical dislocation on ice. Brain striatum was rapidly taken, and 2 brain striatums were combined into a centrifuge tube, to which 3 ml of buffer (0.05 M Tris-HCl buffer, containing NaCl 120 mM, KCl 5 mM, MgCl2 1 mM, CaCl2 1 mM) was added, homogenization was conducted for 3-4 s at level 4 for four times, and then 5 ml of buffer was then added. The weight of the homogenized tubes were adjusted using a balance, and centrifugation was conducted at 12000 r, 4° C. for 20 min. The supernatant was discarded, and 3 ml of buffer was added (0.05 M Tris-HCl buffer, containing NaCl 120 mM, KCl 5 mM, MgCl2 1 mM, CaCl2 1 mM). Vortex mixer was used for blending, and then 5 ml of buffer was added (0.05 M Tris-HCl buffer, containing NaCl 120 mM, KCl 5 mM, MgCl2 1 mM, CaCl2 1 mM). Centrifugation was conducted (repeated 3 times). After the centrifugations, the supernatant was discarded, and the pellets were stored at −80° C. for future use.
Beckman LS-6500 Multi-function Liquid Scintillation Counter was used.
(1) The prepared membrane was first applied with appropriate amount of homogenized liquid, and homogenizer was used for evenly dispersing. 15 tubes were mixed into a 100 ml container, and appropriate amount of homogenized liquid was added to give 50 ml of membrane suspension, which was reserved for future use.
(2) 100 μL of membrane preparation and 100 μL of buffer were added into each reaction tube.
(3) 100 μL of homogenized liquid was added into the total binding tube (TB), 100 μL of Butaclamol (final concentration 10^−5 M) was added into the non-specific binding tube (NB), and 100 μL of the test compound (final concentration 10^−5 M) was added into the specific binding tube (SB) for each compound.
(5) Each of the reaction tubes was incubated at 37° C. for 20 min. After the reaction was completed, the bound ligands were rapidly filtered under reduced pressure, and the ice-chilled assay buffer was used for adequate washing. The filter was taken out and put into a 3 ml scintillation vial, and 2 ml of toluene scintillation solution was added and blended.
(6) The scintillation vials were put into Liquid Scintillation Counter for counting. Inhibitory rate(1%)=(Total binding tube cpm−compound cpm)/(Total binding tube cpm−non-specific binding tube cpm)×100%
Each assay for the compounds was conducted in duplicate.

KM mice [2] = assay: Catalepsy assay; assay type: in vivo
Description: (§1) Healthy mice of Kunming breed (with half male and half female, (22±2)g) were provided by Qinglongshan Animal Cultivation Center, Nanjing.
(§2) Instruments: self-made bar-grabbing apparatus: stainless steel bar in mice box, which was 0.3 cm in diameter and […].
(§3) Corresponding solvent double-distilled water was administered intragastrically to the negative control group and the model group, corresponding positive drugs were administered intragastrically to the positive drug groups (a small amount of acetic acid was first added and then double-distilled water was added when dissolving), and corresponding dosages of compounds were administered intragastrically to the compound groups for each dosage, with the volume for intragastric administration as 0.1 ml/10 g. At 30 min, 60 min, 90 min after the intragastric administration, the two forepaws of the mice were gently placed on the bars (which were 20 cm in length, 0.3 cm in diameter, and 5.5 cm above the bench), and the hindpaws of the animals were placed on the bottom of the box. The durations for the mice to maintain the posture with the two forepaws on the bars were recorded, and 30 s of spasticity without moving was considered as the positive response. In the case the forepaws of the mice were not put down persistently, the observation was terminated at 60 s. The numbers of animals with positive response in each of the compound dosage groups were counted.

Catalepsy assay = assay type: in vivo; conditions: both sexes, Kunming (KM), mouse, in vivo; mice, po
Description: as §1, §2, §3

5-HT1A receptor = biological target: T1, 5-HT1A receptor (Rattus norvegicus, UniProt P19327); assay: 5HT1A receptor binding assay (3H-8-OH-DPAT, rat brain striatum membrane); conditions: for inhibition at 10 µM: test compound final concentration 10^−5 M
T1 sequence (P19327 1-422): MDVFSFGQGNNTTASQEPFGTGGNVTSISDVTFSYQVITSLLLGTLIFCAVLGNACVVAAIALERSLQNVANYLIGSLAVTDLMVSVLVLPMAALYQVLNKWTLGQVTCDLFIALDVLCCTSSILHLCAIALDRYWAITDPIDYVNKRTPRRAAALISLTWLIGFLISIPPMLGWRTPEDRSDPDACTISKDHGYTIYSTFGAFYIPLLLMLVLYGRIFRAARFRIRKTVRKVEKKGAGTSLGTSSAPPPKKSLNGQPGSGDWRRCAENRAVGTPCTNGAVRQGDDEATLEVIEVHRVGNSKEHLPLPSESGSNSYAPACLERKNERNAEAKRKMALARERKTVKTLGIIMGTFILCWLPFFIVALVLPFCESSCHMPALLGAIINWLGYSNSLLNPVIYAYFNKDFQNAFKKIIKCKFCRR
Description: Incubation at 37° C. was conducted for 10 min, the weight of the tubes were adjusted using a balance after incubation. […] Centrifugation was conducted and repeated 3 times.

KM mice [3] = assay: Apomorphine induced clambering assay of mice; assay type: in vivo; conditions: for ED50: Mus musculus, po, apomorphine 1 mg/kg sc
Description: Healthy KM mice (male, with body weight of 18-22 g) were provided by Qinglongshan Animal Cultivation Center, Nanjing.
Test positive drugs: haloperidol, clozapine, risperidone, olanzapine, aripiprazole, ziprasidone, quetiapine.
Apomorphine provided by Sigma Company was dissolved in 0.9% NaCl (containing 0.1% vitamin C) before use, and was freshly formulated before use.
Corresponding solvent double-distilled water was administered intragastrically to the negative control group and the model group, corresponding positive drugs were administered intragastrically to the positive drug groups (a small amount of acetic acid was first added and then double-distilled water was added when dissolving), and corresponding dosages of compounds were administered intragastrically to the compound groups for each dosage, with the volume for intragastric administration as 0.1 ml/10 g. 1 hour after the intragastric administration, apomorphine was subcutaneously injected (1 mg/kg), with the volume as 0.1 ml/10 g. After the injection of apomorphine, the mice were immediately put into the clambering cages. After 5 min of adaptation, the behaviors of the mice at 10-11, 20-21, and 30-31 min after the injection of apomorphine were observed and scored. Scoring criteria: 4 paws on the floor was scored as 0; 2 forepaws on the cage was scored as 1; and 4 paws on the cage was scored as 2.

mice of Kunming breed = assay: MK-801 induced high activity in mice; assay type: in vivo; conditions: for ED50: Mus musculus, 1.5 h, po, MK-801 0.1 mg/kg ip, spontaneous activity in 90 min; for improvement of MK-801 induced high activity (in words): compared to the model group
Description: Healthy mice of Kunming breed (with half male and half female, (20±2)g) were provided by Qinglongshan Animal Cultivation Center, Nanjing.
Subsequently, the spontaneous activities of the mice of each group in 90 min were measured.

5-HT2C receptor = 5-HT2C receptor (Rattus norvegicus, UniProt P08909); assay: 5HT2C receptor binding assay ([3H]-mesulergine, rat brain striatum membrane)
5-HT2C receptor, sequence (P08909 33-460): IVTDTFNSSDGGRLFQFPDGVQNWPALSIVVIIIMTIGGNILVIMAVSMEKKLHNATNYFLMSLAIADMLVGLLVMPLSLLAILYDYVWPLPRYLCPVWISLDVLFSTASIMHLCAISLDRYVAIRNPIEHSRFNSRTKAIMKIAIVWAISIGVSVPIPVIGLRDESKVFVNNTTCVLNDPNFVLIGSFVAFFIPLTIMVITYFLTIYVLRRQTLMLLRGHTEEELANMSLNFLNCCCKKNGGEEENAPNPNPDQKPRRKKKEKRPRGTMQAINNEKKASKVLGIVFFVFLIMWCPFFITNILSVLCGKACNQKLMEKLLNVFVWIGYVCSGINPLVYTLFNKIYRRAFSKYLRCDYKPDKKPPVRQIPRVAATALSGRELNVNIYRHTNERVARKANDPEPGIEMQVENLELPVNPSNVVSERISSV

D3 receptor = biological target: T2, D3 receptor (Homo sapiens, UniProt P35462); assay: D3 receptor assay ([3H]-Spiperone, HEK-293 cells); assay type: binding
T2 construct: expressed in transfected cells; host or cells: HEK-293
T2 sequence (P35462 whole entry): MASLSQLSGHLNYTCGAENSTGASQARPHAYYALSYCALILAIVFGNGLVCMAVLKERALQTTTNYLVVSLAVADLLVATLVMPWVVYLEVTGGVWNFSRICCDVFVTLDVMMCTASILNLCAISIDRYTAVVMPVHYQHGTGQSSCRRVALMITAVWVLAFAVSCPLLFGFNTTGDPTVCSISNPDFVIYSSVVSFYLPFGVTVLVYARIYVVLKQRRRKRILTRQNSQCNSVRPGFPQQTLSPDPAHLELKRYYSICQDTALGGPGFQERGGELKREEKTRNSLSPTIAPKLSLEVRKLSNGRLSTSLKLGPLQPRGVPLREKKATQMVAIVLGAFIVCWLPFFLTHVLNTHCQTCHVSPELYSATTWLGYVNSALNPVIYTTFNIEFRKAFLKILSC
Description: After the cells were centrifuged at 1000 rpm for 5 min, the supernatant was discarded, and the cell pellet was collected and stored in a −20° C. fridge for reservation. It was re-suspended with Tris-Cl (pH 7.4) in the assay.
Tris was divided into aliquots by Genetimes Technology Inc.
Competitive binding test for receptors: 20 μl of each of the test compounds and 20 μl of the radioactive ligand together with 160 μl of the receptor proteins were added into the reaction tubes, and the final concentrations of the test compound and the positive drug were all 10 μmol/L. After 50 min of incubation in 30° C. water bath, the tubes were immediately moved to ice bath to terminate the reactions. GF/C glass fiber filter papers were used for rapid sucking filtration on a Millipore cell sample collector, elution buffer (50 mM Tris-HCl, PH 7.4) was applied for 3 ml×3 times, and microwave was applied for 4-5 min for drying. The filter papers were moved into 0.5 ml centrifuge tubes, and 500 μl of lipid-soluble scintillation solution was added. The tubes were allowed to stand still for over 30 min in dark, and the intensities of radioactivity were measured by a counter.

[4] = 3H-8-OH-DPAT, rat brain striatum membrane
[5] = in vitro receptor binding assay

5-HT2A receptor, sequence (P14842 whole entry): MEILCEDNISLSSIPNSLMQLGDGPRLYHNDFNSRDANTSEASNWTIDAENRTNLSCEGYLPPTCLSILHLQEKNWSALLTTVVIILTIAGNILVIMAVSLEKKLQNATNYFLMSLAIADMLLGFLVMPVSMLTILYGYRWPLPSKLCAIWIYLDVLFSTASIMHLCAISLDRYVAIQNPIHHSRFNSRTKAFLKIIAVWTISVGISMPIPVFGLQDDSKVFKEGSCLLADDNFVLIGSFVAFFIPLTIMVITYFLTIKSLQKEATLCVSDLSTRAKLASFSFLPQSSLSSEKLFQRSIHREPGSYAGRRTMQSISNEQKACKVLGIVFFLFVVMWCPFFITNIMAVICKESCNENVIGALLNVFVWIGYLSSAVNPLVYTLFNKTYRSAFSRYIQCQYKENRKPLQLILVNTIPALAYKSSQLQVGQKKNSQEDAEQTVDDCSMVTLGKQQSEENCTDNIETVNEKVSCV

Structure (SMILES) | LD50 (in vivo) [mg/kg] | inhibition at 10 µM (dopamine D2 receptor) [%] | EPS at effective dosage (in words) (KM mice [2]) | ED50 (Catalepsy assay) [mg/kg] | inhibition at 10 µM (5-HT1A receptor; [4]) [%] | improvement of apomorphine induced clambering symptoms (in words) (KM mice [3]) | ED50 (KM mice [3]) [mg/kg] | ED50 (mice of Kunming breed) [mg/kg] | improvement of MK-801 induced high activity (in words) (mice of Kunming breed) | also measured
O=C1CCc2ccc(OCCCCN3CCN(c4cccc(Cl)c4Cl)CC3)cc2N1 [aripiprazole] | – | – | – | – | – | – | – | – | – | LD50 (po, mg/kg) (KM mice [1]): 93 mg/kg
Cc1cc(=O)oc2c(C)c(OCCCCN3CCC(c4noc5cc(F)ccc45)CC3)ccc12 [Compound 23, 7-(4-(4-(3-(6-fluoro-benzisoxazole)-1-piperidyl)-n-butoxy))-4,8-dimethyl-2H-benzopyran-2-one] | > 2000 | 6.9 | did not cause EPS | 46.1 | 78.5 | effectively improve | 0.21 | 4.24 | significantly improve | inhibition at 10 µM (5-HT2A receptor): 78.6%
Cc1cc(=O)oc2c(Cl)c(OCCCCN3CCC(c4noc5cc(F)ccc45)CC3)ccc12 [Compound 19, 7-(4-(4-(3-(6-fluoro-benzisoxazole)-1-piperidyl)-n-butoxy))-4-methyl-8-chloro-2H-benzopyran-2-one] | – | 27.8 | did not cause EPS | 70.8 | 104 | effectively improve | 1.68 | 1.33 | significantly improve | inhibition at 10 µM (5-HT2A receptor; test compound final concentration 10^−5 M, [3H]-Ketanserin, rat brain striatum membrane): 119%; LD50 (in vivo; KM): > 2000 mg/kg
O=c1ccc2ccc(OCCCCN3CCC(c4noc5cc(F)ccc45)CC3)cc2o1 [Compound 1, 7-(4-(4-(3-(6-fluoro-benzisoxazole)-1-piperidyl)-n-butoxy))-2H-benzopyran-2-one] | > 2000 | 128 | – | 1.41 | – | – | 0.32 | 0.61 | – | IC50 (5-HT2A receptor; cells marked ^a, [3H]-Ketanserin, rat brain striatum membrane): 1.53 nM; affinity for 5-HT2A receptor (in words) (5-HT2A receptor; [5]): relatively stronger affinities; affinity for D2 receptor (in words) (dopamine D2 receptor; [5]): relatively stronger affinities; IC50 (5-HT1A receptor; cells marked ^a, 3H-8-OH-DPAT, rat brain striatum membrane): 9.61 nM; affinity for 5-HT1A receptor (in words) (5-HT1A receptor; [5]): relatively stronger affinities; affinity for 5-HT2C receptor (in words) (5-HT2C receptor; [5]): lower affinities; inhibition at 10 µM (5-HT2C receptor; read-out: 5HT2C inhibition %): 88%; inhibition at 10 µM (D3 receptor; final concentration 10 μmol/L, [3H]-Spiperone, HEK-293 cells): 97.6%; affinity for D3 receptor (in words) (D3 receptor; [5]): relatively stronger affinities
